Patent publication US20140038953A1, “COMPOSITIONS AND METHODS FOR CARDIOVASCULAR DISEASE” (THE GENERAL HOSPITAL CORPORATION, priority 2011, published 2014)
Entries after “also recorded” stand apart in the source; their conditions may differ.

What was measured:
LDLR−/− mice = test: Vascular calcification in LDLR−/− mice on high fat diet (Osteosense, Alizarin red); format: in vivo; conditions: high fat diet 20 weeks, 2.5 mg/kg ip daily, vs vehicle
Protocol: Fluorescence reflectance imaging (FRI), was performed as previously described. (Aikawa, E., et al. Osteogenesis associates with inflammation in early-stage atherosclerosis evaluated by molecular imaging in vivo. Circulation 116, 2841-2850 (2007); and Aikawa, E., et al. Multimodality molecular imaging identifies proteolytic and osteogenic activities in early aortic valve disease. Circulation 115, 377-386 (2007).) Animals received 150 μl of OsteoSense 680 and 150 μl of ProSense 750 via tail vein injection 24 hours before euthanasia. After dissection, aortae were subjected to ex vivo near infrared fluorescence reflectance imaging using an Odyssey Imaging System (LI-COR Biotechnology, Lincoln, Nebr.), with integrated signal intensities determined for regions of interest using software version 3.0.16.
Aortas were either immediately embedded and cryopreserved using optimal cutting-temperature medium (Sakura Tissue-Tek, Zoeterwoude, The Netherlands) or fixed in paraformaldehyde and embedded in parafin. The presence of calcification was determined by staining tissue sections with Alizarin red or Von Kossa. Lipid accumulation in tissue sections was visualized by staining with Oil Red O. Liver sections were prepared from paraformaldehyde-fixed tissue and stained with hematoxylin and eosin. […]

[1] = Body weight, food intake and bone mineral density in LDLR−/− mice; format: in vivo; conditions: 2.5 mg/kg ip daily, vs vehicle
[2] = tested on: human aortic endothelial cells; test: Reactive oxygen species in human aortic endothelial cells; format: cell-based; conditions: HAECs, compound 13 100 nM, ALK3-Fc 500 ng/mL
Protocol: Cells plated in a 96-well format were pre-treated with compound 13, ALK3-Fc, or vehicle for 30 min followed by treatment with oxidized LDL, BMP2, or vehicle for 20 hours after starvation for six hours. H2O2 production with chloromethyl 2′,7′-dichlorodihydrofluorescein diacetate (DCF, 2 μM) and NADPH oxidase activity with lucigenin were measured as previously described. (Ichinose, F., et al. Cardiomyocyte-specific overexpression of nitric oxide synthase 3 prevents myocardial dysfunction in murine models of septic shock. Circ Res 100, 130-139 (2007); Sorescu, G. P., et al. Bone morphogenic protein 4 produced in endothelial cells by oscillatory shear stress induces monocyte adhesion by stimulating reactive oxygen species production from a nox1-based NADPH oxidase. Circ Res 95, 773-779 (2004); and Abid, M. R., Spokes, K. C., Shih, S. C. & Aird, W. C. NADPH oxidase activity selectively modulates vascular endothelial growth factor signaling pathways. J Biol Chem 282, 35373-35385 (2007).)
Hepatoma G2 (HepG2) cells and human aortic endothelial cells (HAECs) were purchased from the American type culture collection (Manassas, Va.). HepG2 cells were maintained in Eagle's Minimum Essential Medium (EMEM) supplemented with 10% fetal bovine serum, 100 units/ml of penicillin, 0.1 mg/ml of streptomycin and glutamine. HAECs were cultured in endothelial cell basal medium (EBM 2) supplemented with the EBM2 bullet kit (Lonza, Basel, Switzerland). For experiments, cells were seeded into 6 or 12-well plates (BD Falcon, Franklin Lakes, N.J.) at a concentration of 0.5×10^6 cells per 5 mL of media. HAECs were maintained in EBM 2 with 0.1% FBS without additional growth factors for all experiments. HepG2 cells were grown to 70% confluence before they were incubated in EMEM enriched with 0.1% FBS. ApoB-100 measurements were performed in supernatants from HepG2 that had been incubated in EMEM containing 0.5% bovine serum albumin using a commercially available Human ApoB-100 ELISA kit (Mabtech AB, Nacka Strand, Sweden). […]

HepG2 cells = test: ApoB-100 secretion in HepG2 cells (ELISA); format: cell-based, human; conditions: compound 13 100 nM, atorvastatin 1 nM, ALK3-Fc 400 ng/mL
Protocol: Hepatoma G2 (HepG2) cells and human aortic endothelial cells (HAECs) were purchased from the American type culture collection (Manassas, Va.). HepG2 cells were maintained in Eagle's Minimum Essential Medium (EMEM) supplemented with 10% fetal bovine serum, 100 units/ml of penicillin, 0.1 mg/ml of streptomycin and glutamine. HAECs were cultured in endothelial cell basal medium (EBM 2) supplemented with the EBM2 bullet kit (Lonza, Basel, Switzerland). For experiments, cells were seeded into 6 or 12-well plates (BD Falcon, Franklin Lakes, N.J.) at a concentration of 0.5×10^6 cells per 5 mL of media. HAECs were maintained in EBM 2 with 0.1% FBS without additional growth factors for all experiments. HepG2 cells were grown to 70% confluence before they were incubated in EMEM enriched with 0.1% FBS. ApoB-100 measurements were performed in supernatants from HepG2 that had been incubated in EMEM containing 0.5% bovine serum albumin using a commercially available Human ApoB-100 ELISA kit (Mabtech AB, Nacka Strand, Sweden). BMP2 protein measurements were performed in supernatants from HAECs that had been incubated in EBM2 containing 0.1% FBS using a BMP2 ELISA kit (R&D Systems).

MGP−/− mice = test: Survival of MGP−/− mice; format: in vivo; conditions: 2.5 mg/kg/day IP from day 1, n=10 in each group
Protocol: MGP−/− mice were treated with either vehicle or the small molecule BMP type I receptor inhibitor compound 13 (2.5 mg/kg once daily IP) from day 1 to 28. Compound 13 is used as a BMP inhibitor positive control compound in these experiments. Whole aortas were harvested for phospho-Smad 1/5/8 (P-Smad) immunohistochemistry, a marker of BMP signaling, and for Alizarin Red staining of calcium. Osteogenic activity in aortas was visualized ex vivo by the uptake of a fluorescent bisphosphonate imaging probe. MGP−/− mice were also treated with vehicle or compound 13 to ascertain if inhibition of BMP signaling could impact survival, using Kaplan-Meier and Cox regression analysis.
Twenty MGP−/− mice were treated either with vehicle (n=10) or compound 13 (2.5 mg/kg/day IP, n=10) beginning at day 1 of life and followed for survival.

c1ccc2c(-c3cnn4cc(-c5ccc(N6CCNCC6)cc5)cnc34)ccnc2c1 [Compound 13, 4-[6-(4-piperazin-1-ylphenyl)pyrazolo[1,5-a]pyrimidin-3-yl]quinoline]
vascular calcification / osteogenic activity (fluor-labeled bisphosphonate uptake, Alizarin red) (LDLR−/− mice): significantly less abundant; also recorded: reduced vascular calcification throughout the aortae; also recorded: severely diminished evidence of osteogenesis | vascular calcification / osteogenic activity (fluor-labeled bisphosphonate uptake, Alizarin red) (LDLR−/− mice; listed as BMP inhibitor positive control compound): can reduce vascular calcification | food intake per gram body weight ([1]; 6 weeks high fat diet, 2.5 mg/kg): did not differ significantly; also recorded: not associated with a reduction in body weight or food intake | body weight ([1]; 20 weeks high fat diet, 2.5 mg/kg): did not differ significantly; also recorded: not associated with a reduction in body weight or food intake | bone mineral density (femur, dual energy X-ray absorptiometry) ([1]; HFD 20 weeks): did not differ | BMP2-induced generation of reactive oxygen species (DCF fluorescence) ([2]; BMP2 20 ng/mL): compound 13- and ALK3-Fc-sensitive manner | oxLDL-induced generation of reactive oxygen species (DCF fluorescence) ([2]; oxLDL 80 μg/mL): could inhibit oxLDL-induced ROS production | oxLDL-induced generation of reactive oxygen species (lucigenin fluorescence) [2]: could be blocked | BMP2-induced ApoB-100 secretion (HepG2 cells; BMP2 100 ng/mL): blocked; also recorded: prevented the BMP2-mediated induction of ApoB-100 secretion | basal ApoB-100 secretion (absence of BMP2) (HepG2 cells): reduced basal apolipoprotein B100 (ApoB-100) secretion; also recorded: inhibited ApoB-100 production | Cox hazard ratio (survival) (MGP−/− mice): 0.04 | survival compared to vehicle-treated controls (MGP−/− mice): improved survival
